These results are taken from patent US20260262635A1, “BAR COMPOSITION HAVING ENHANCED ANTIMICROBIAL ACTIVITY” (Conopco, Inc., d/b/a UNILEVER, priority 2021, published 2026).

For the assay, the system named is S. aureus ATCC 6538. The assay can be described thus: Time-kill assay adapted from ASTM E2315-16, S. aureus. It counts as cell-based. To be noted: S. aureus and E. coli, 30 seconds of contact. As for the experimental part:
Aqueous slurries were prepared whereby gratings from the bars made in the Samples of Table I were mixed with water to form a test solution containing 10% by weight of the initial bar component. In the second method, raw bar components, as depicted in the Samples in Table II, were mixed with water to form a test solution containing a total of 10% raw bar component to simulate an aqueous slurry of a bar composition. For each sample, aqueous slurries were mixed at 50° C. to simulate customary consumer washing conditions.
As to the microbes, E. coli ATCC 10536 and S. aureus ATCC 6538 were used in this study to represent Gram negative and Gram positive bacteria, respectively. The bacteria were stored at −80° C. Fresh isolates were cultured twice on Tryptic Soy Agar plates for 24 hours at 37° C. before each experiment.
Test solutions were prepared. In the first method and for the aqueous slurries made from the bar compositions described in Table I, a composition (typically containing up to 15% surfactant) was mixed with water to form a test solution containing 10% weight percent of the initial formulation. In the second method and for the raw ingredients combined in Table II, the same were mixed with water at levels that simulate a 10% dilution of the slurries. In each assessment, test solutions were heated and mixed at […]
The log reduction was calculated using the formula: […]

For the compound `CC(O)C(=O)O` (stereo not shown) [lactic acid, Lactic acid], the “antimicrobial reduction / efficacy (in words)” value is listed as “performed poorly against S. aureus”.
